Literature values as cited in US20070196500A1, “Composition for oral administration of tamsulosin hydrochloride and controlled release granule formulation comprising same” (priority 2004, published 2007).
Structures can show the parent of a compound that is named as a salt.

- water-solubility: low water-solubility
SMILES: CCOc1ccccc1OCCN[C@H](C)Cc1ccc(OC)c(S(N)(=O)=O)c1 [Tamsulosin hydrochloride, tamsulosin hydrochloride]
